We go through three compounds from patent US20170258774A1 (priority 2016, published 2017).

Molecules are shown by their SMILES.

Test [1] deals with BChE (Rattus norvegicus, UniProt Q9JKC1). The class given is biochemical.
Test [2] concerns the target BChE (Cavia porcellus, UniProt H0V4F8). Format: biochemical, guinea pig.
The target of test [3] is BChE (Homo sapiens, UniProt P06276). Format: biochemical.
Sequence of BChE (Homo sapiens, UniProt P06276) (P06276 29-602): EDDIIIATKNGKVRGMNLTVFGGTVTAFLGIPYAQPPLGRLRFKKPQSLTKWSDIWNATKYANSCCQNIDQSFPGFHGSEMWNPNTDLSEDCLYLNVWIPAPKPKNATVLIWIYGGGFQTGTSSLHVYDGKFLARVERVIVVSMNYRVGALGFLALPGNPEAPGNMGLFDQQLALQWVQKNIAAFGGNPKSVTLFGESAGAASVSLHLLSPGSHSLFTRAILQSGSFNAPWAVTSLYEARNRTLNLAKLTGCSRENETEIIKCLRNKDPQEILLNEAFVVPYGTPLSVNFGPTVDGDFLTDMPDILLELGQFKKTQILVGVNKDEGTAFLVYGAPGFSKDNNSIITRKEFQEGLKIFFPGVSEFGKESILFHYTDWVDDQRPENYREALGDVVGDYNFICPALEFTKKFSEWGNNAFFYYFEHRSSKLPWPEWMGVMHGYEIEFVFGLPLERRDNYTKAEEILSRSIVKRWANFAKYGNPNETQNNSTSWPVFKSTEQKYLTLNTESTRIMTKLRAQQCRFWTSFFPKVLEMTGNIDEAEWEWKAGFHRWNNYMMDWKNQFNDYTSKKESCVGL

Sequence of BChE (Rattus norvegicus, UniProt Q9JKC1) (Q9JKC1 24-597 limits assumed): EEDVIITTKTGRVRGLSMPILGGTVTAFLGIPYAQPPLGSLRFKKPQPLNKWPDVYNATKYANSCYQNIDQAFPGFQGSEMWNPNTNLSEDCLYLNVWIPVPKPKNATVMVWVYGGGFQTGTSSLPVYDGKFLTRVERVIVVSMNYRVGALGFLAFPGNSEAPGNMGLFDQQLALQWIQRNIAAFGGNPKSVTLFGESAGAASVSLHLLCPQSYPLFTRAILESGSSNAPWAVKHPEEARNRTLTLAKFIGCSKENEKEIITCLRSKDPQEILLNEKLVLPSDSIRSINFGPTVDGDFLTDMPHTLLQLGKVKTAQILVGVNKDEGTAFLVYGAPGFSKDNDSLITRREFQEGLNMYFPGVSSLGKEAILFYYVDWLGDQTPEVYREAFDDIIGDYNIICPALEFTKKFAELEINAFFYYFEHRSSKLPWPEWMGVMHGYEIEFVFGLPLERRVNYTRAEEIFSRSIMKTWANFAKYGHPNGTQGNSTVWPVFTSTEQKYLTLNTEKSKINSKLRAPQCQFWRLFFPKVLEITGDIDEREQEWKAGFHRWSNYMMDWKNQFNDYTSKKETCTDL
Sequence of BChE (Cavia porcellus, UniProt H0V4F8) (H0V4F8 29-602 limits assumed): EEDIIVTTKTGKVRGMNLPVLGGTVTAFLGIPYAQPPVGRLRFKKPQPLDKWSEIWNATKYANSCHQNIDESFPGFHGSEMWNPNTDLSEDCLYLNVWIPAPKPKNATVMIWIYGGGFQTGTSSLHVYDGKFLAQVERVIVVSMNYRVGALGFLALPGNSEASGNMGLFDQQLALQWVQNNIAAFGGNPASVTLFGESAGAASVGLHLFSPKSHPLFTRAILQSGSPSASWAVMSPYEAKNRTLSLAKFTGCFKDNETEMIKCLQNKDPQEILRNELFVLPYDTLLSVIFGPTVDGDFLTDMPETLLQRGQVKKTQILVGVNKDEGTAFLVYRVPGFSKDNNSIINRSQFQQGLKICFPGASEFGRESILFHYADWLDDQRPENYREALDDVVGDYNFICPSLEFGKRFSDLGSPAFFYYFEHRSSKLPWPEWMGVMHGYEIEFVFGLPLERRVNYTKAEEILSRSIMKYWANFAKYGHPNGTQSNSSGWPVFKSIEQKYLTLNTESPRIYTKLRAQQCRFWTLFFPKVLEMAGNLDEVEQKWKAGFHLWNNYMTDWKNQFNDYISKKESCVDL

As for `CCOP(=O)(OCC)SC[S+]([O-])CC` (centres unmarked) [PHOsox, phorate oxon sulfoxide], in test [1], the “BChE inhibitory potency relative to phorate oxon” value is listed as “ten-fold more potent” and the “OP Inhibitory Concentrations of at least 80% BChE” value was found to be 1.00 µM.

In the case of `CCOP(=O)(OCC)SCSCC` [PHO, phorate oxon], the “OP Inhibitory Concentrations of at least 80% BChE” value was 5.60 µM in test [2], 0.178 µM in test [3] and 10.0 µM in test [1].

Turning to `CCOP(=O)(OCC)Oc1ccc([N+](=O)[O-])cc1` [PXN, phosphoric acid diethyl 4-nitrophenyl ester], the “OP Inhibitory Concentrations of at least 80% BChE” value in test [2] amounted to 0.178 µM; in test [3] it was 0.032 µM; in test [1], 1.78 µM.
